Assay results as given in PubChem BioAssay AID1949 (Southern Research Institute, 2009).
≈ marks a conversion by molar mass, not a printed value. Results filed as inconclusive are left out. Calls of active or inactive are those of the source. The rule behind the calls is not given here.

The compounds below were run on M. tuberculosis H37Rv growth inhibition (assay: Confirmatory growth inhibition assay against Mycobacterium tuberculosis H37Rv, potency (AID 1949);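 note: bacteria grown 7 days with compound before Alamar blue readout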).
With O=[N+]([O-])c1cc(CN2CCN(c3ccccc3)CC2)c(O)c2ncccc12 the IC50 was 6.09 µg/mL (≈ 16.7 µM).
With Clc1cc(Br)ccc1OCCCCn1ccnc1 the IC50 was 1.11 µg/mL (≈ 3.37 µM).
With CC(Nc1nc(N2CCN(C(=O)c3ccc(Cl)cc3)CC2)nc2ccccc12)c1ccccc1 (stereo not drawn) the IC50 was 2.7 µg/mL (≈ 5.72 µM).
Compound Cc1cc(OCCCN2CCCC(C)C2)cc(C(C)C)c1 (stereo not drawn) has an IC50 of 5.85 µg/mL (≈ 20.2 µM).
For COc1ccc(-c2csc(-c3cccnc3)n2)cc1C, the IC50 was 12.9 µg/mL (≈ 45.9 µM).
Compound FC(F)(F)c1cccc(NC(=S)Nc2ccc(Cl)cc2Cl)c1 has an IC50 of 12.1 µg/mL (≈ 33.1 µM).
In the case of CN1CCN(c2ccc(NC(=O)c3ccc(-c4ccc(Cl)cc4)o3)cc2)CC1, the IC50 is reported as 38 µg/mL (≈ 96 µM).
In the case of COC(=O)C(C)Oc1ccc2c(=O)c(Oc3ccccc3Br)coc2c1 (stereo not drawn), the IC50 is reported as 2.96 µg/mL (≈ 7.06 µM).
With C#CCOc1c(Cl)cc(/C=C/[N+](=O)[O-])cc1Cl the IC50 was > 50 µg/mL (inactive).
Compound O=C(NC12CC3CC(CC(C3)C1)C2)N1CCN(c2cccc(C(F)(F)F)c2)CC1 has an IC50 of 0.96 µg/mL (≈ 2.36 µM).
For CCCS(=O)(=O)c1nnnn1-c1cccc(OC)c1, the IC50 was 0.65 µg/mL (≈ 2.3 µM).
In the case of Nc1ncnc(Sc2ncccn2)c1[N+](=O)[O-], the IC50 is reported as > 50 µg/mL (inactive).
Work on O=C(/C=C/c1cccc(C(F)(F)F)c1)Nc1cccc(C(F)(F)F)c1 yielded an IC50 of 0.9 µg/mL (≈ 2.51 µM).
Cc1ccc(NC(=S)Nc2ccc(Cl)c(Cl)c2)c(OC(F)F)c1 showed an IC50 of 2.92 µg/mL (≈ 7.74 µM).
COc1ccc(-c2c(C)[nH]n3c(=O)c(Cc4ccccc4)c(C)nc23)cc1 was tested, and the IC50 was 1.28 µg/mL (≈ 3.56 µM).
For CCCOC(=O)c1ccc(NC(=S)NC(=O)c2ccc(Cl)cc2)cc1, the IC50 was 0.8 µg/mL (≈ 2.12 µM).
Work on COC(=O)COc1ccc(NC(=O)COc2ccc(C)c(C)c2)cc1 yielded an IC50 of 3.35 µg/mL (≈ 9.76 µM).
O=C(CSc1ccc([N+](=O)[O-])cn1)Nc1ccc2c(c1)OCO2 was tested, and the IC50 was 7.47 µg/mL (≈ 22.4 µM).
O=C1CC(c2ccc(Cl)cc2)CC2=C1C(c1ccc(C(F)(F)F)cc1)Nc1ccccc1N2 (stereo not drawn) showed an IC50 of 2.14 µg/mL (≈ 4.56 µM).
In the case of COc1cc(/C=C/c2ccc3cccc(OC)c3n2)c(Cl)cc1OC(C)=O, the IC50 is reported as 35.3 µg/mL (≈ 92 µM).
CSc1ccc(C(CC(=O)c2ccccc2)Nc2ccc(F)cc2)cc1 (stereo not drawn) showed an IC50 of 1.47 µg/mL (≈ 4.02 µM).
In the case of O=C(Nc1cccc(C(F)(F)F)c1)Nc1cc(F)c(F)cc1Cl, the IC50 is reported as 19.5 µg/mL (≈ 55.5 µM).
CCOC(=O)c1ccc(NC(=O)CC2C(=O)N(Cc3ccccc3)C(=S)N2Cc2cccnc2)cc1 (stereo not drawn) showed an IC50 of 6.04 µg/mL (≈ 12 µM).
CCOC(=O)Cn1nnc(-c2ccc(OCc3ccccc3C)cc2)n1 was tested, and the IC50 was under 0.1 µg/mL.
O=C(Oc1cccc2cccnc12)C(Cc1ccccc1)N1C(=O)C2C3CCC(C3)C2C1=O (stereo not drawn) gave an IC50 of 2.76 µg/mL (≈ 6.27 µM).
For COc1cccc(OCCN2CCN(c3ncnc4sc5c(c34)CCCC5)CC2)c1, the IC50 was 29 µg/mL (≈ 68.2 µM).
Compound O=Cc1c(Nc2ccccc2)nc2ccccn2c1=O has an IC50 of 6.7 µg/mL (≈ 25.3 µM).
With COc1cccc(N2C(=O)c3cccc4cc([N+](=O)[O-])cc(c34)C2=O)c1 the IC50 was 11 µg/mL (≈ 31.7 µM).
Cc1ccc(C(=O)Nc2cc(C#N)c3[nH]c4ccccc4n3c2=O)cc1 gave an IC50 of 6.55 µg/mL (≈ 19.1 µM).
O=c1oc(-c2ccccc2Br)nc2sc3c(c12)CCCC3 showed an IC50 of 0.98 µg/mL (≈ 2.71 µM).
CCCCOC(=O)c1cccc(NC(=O)c2cccc(Cl)c2)c1 gave an IC50 of 4.03 µg/mL (≈ 12.1 µM).
Cc1cccc(Nc2nc(N)nc(CN3CCN(c4cccc(Cl)c4)CC3)n2)c1 showed an IC50 of 0.39 µg/mL (≈ 0.951 µM).
O=C(CC1(O)C(=O)N(CCc2ccccc2)c2ccc(Cl)cc21)c1ccc2c(c1)OCCO2 (stereo not drawn) was tested, and the IC50 was 7.71 µg/mL (≈ 16.6 µM).
Compound CN1CCN(c2ccc(NC(=O)c3ccc(-c4cccc([N+](=O)[O-])c4)o3)cc2)CC1 has an IC50 of 8.66 µg/mL (≈ 21.3 µM).
In the case of COc1cc(CNC23CC4CC(CC(C4)C2)C3)ccc1OCc1ccccc1, the IC50 is reported as > 50 µg/mL (inactive).
In the case of Cc1cc(N2CCCC2)c(C)cc1/C=C\[N+](=O)[O-], the IC50 is reported as > 50 µg/mL (inactive).
For COc1ccc(C(=S)N2CC(C)OC(C)C2)c(OC)c1 (stereo not drawn), the IC50 was > 50 µg/mL (inactive).
O=C(CNS(=O)(=O)c1ccc([N+](=O)[O-])cc1)OCc1c(F)cccc1Cl was tested, and the IC50 was 17.3 µg/mL (≈ 43 µM).
O=C(NCC1COc2ccccc2O1)c1ccc(NC(=O)C2COc3ccccc3O2)cc1 (stereo not drawn) was tested, and the IC50 was 1.94 µg/mL (≈ 4.35 µM).
Work on COC(=O)c1ccc(NC(=O)CSc2nnc(Cc3ccc(OC)cc3)o2)cc1 yielded an IC50 of 11.1 µg/mL (≈ 26.8 µM).
CCN(CC)CCC(=O)c1ccc(C(C)C)cc1 showed an IC50 of 47.6 µg/mL (≈ 193 µM).
CCCCn1c(O)c(/C=C2\C=CC=N2)c(=O)[nH]c1=O showed an IC50 of under 0.1 µg/mL.
For COc1ccccc1C(=O)NNC(=S)NC(=O)c1ccc(-c2ccccc2)cc1, the IC50 was under 0.1 µg/mL.
With CCCN1C(=O)c2cccc3cc([N+](=O)[O-])cc(c23)C1=O the IC50 was under 0.1 µg/mL.
With COC(=O)C(C)Oc1ccc2c3c(c(=O)oc2c1)CCCCC3 (stereo not drawn) the IC50 was > 50 µg/mL (inactive).
CCN1C(=O)c2cccc3cc([N+](=O)[O-])cc(c23)C1=O showed an IC50 of under 0.1 µg/mL.
Work on Cc1ccc(OC(F)F)c(NC(=O)Nc2ccc([N+](=O)[O-])cc2)c1 yielded an IC50 of 22.4 µg/mL (≈ 66.5 µM).
COc1ccc(C2=CC(=O)c3ccccc3C2=O)cc1 was tested, and the IC50 was 3.53 µg/mL (≈ 13.4 µM).
CCC(Sc1nc2ccccc2o1)C(=O)Nc1nnc(C)s1 (stereo not drawn) was tested, and the IC50 was 0.75 µg/mL (≈ 2.24 µM).
Clc1ccc(-c2nnc(SCc3ccon3)o2)c(Cl)c1 gave an IC50 of 0.79 µg/mL (≈ 2.41 µM).
C=CCc1cc(Cl)ccc1OCCCCn1ccnc1 gave an IC50 of 2.09 µg/mL (≈ 7.19 µM).
O=C(Nc1ccccc1Cl)c1cc([N+](=O)[O-])ccc1O showed an IC50 of 7.53 µg/mL (≈ 25.7 µM).
Compound Cc1ccc(SCCNC(=S)Nc2ccc(Nc3ccccc3)cc2)cc1 has an IC50 of 4.03 µg/mL (≈ 10.2 µM).
Cc1cc(NS(=O)(=O)c2ccc(NC(=O)c3ccc(C(C)(C)C)cc3)cc2)no1 showed an IC50 of 1.76 µg/mL (≈ 4.26 µM).
Compound Cc1c(OC(=O)c2cccc([N+](=O)[O-])c2)ccc2c1CCCC2 has an IC50 of 2.64 µg/mL (≈ 8.48 µM).
O=c1cc(Cc2ccccc2)nc2c(-c3ccccc3)c[nH]n12 showed an IC50 of 0.36 µg/mL (≈ 1.19 µM).
Compound COc1cc(C=O)ccc1OC(=O)c1cccs1 has an IC50 of 4.13 µg/mL (≈ 15.7 µM).
CC(=O)c1cccc(Nc2nc(-c3ccccn3)cs2)c1 was tested, and the IC50 was 0.98 µg/mL (≈ 3.32 µM).
In the case of CCOc1ccc2nc3cc(N)ccc3c(N)c2c1, the IC50 is reported as 0.81 µg/mL (≈ 3.2 µM).
Cc1cc(OCCn2ccnc2)cc(C(C)C)c1 was tested, and the IC50 was 7.45 µg/mL (≈ 30.5 µM).
With COc1ccc(CCNC(=S)N2CCN(c3ccc(Cl)c(Cl)c3)CC2)cc1OC the IC50 was 6.47 µg/mL (≈ 14.2 µM).
Compound FC(F)(F)c1ccccc1Nc1nc(-c2ccccn2)cs1 has an IC50 of under 0.1 µg/mL.
Compound CCCC(=O)N1CCN(c2ccc(NC(=O)c3cc(Br)ccc3Cl)cc2Cl)CC1 has an IC50 of 3.52 µg/mL (≈ 7.05 µM).
Clc1cc(Br)ccc1OCCCn1ccnc1 showed an IC50 of 15 µg/mL (≈ 47.4 µM).
CCC(C)c1ccc(O)c(NC(=S)NC(=O)c2ccc(-c3ccc(Cl)cc3)o2)c1 (stereo not drawn) was tested, and the IC50 was under 0.1 µg/mL.
O=C(COc1cccc(Cl)c1)Nc1ccc(F)c(Cl)c1 showed an IC50 of 5.7 µg/mL (≈ 18.1 µM).
COc1ccc2nc(Nc3nc(C)c(C)c(=O)[nH]3)nc(C)c2c1 was tested, and the IC50 was > 50 µg/mL (inactive).
CC1CCN(c2ccc(NC(=O)c3ccc([N+](=O)[O-])o3)cc2)CC1 gave an IC50 of 0.31 µg/mL (≈ 0.941 µM).
O=C(Oc1ccc(C2CCCCC2)cc1)c1cccs1 showed an IC50 of 13.3 µg/mL (≈ 46.4 µM).
CC1CC(C)CN(C(=O)Nc2ccc(Cl)c(Cl)c2)C1 (stereo not drawn) gave an IC50 of 1.21 µg/mL (≈ 4.02 µM).
Work on CC(C)(C)C(=O)Nc1nc2c(Cl)c(Cl)ccc2s1 yielded an IC50 of 7.02 µg/mL (≈ 23.2 µM).
With Cc1ccc(CNC(=S)Nc2ccc(N(C)C)cc2)cc1 the IC50 was 5.34 µg/mL (≈ 17.8 µM).
Cc1cccc2sc(NC(=O)c3ccc([N+](=O)[O-])cc3Cl)nc12 showed an IC50 of 19.4 µg/mL (≈ 55.8 µM).
With COC(=O)CSc1nnc(NC(=O)c2ccc(C(C)(C)C)cc2)s1 the IC50 was under 0.1 µg/mL.
Compound Cc1cccc(N2CCN(C3=NC(=O)C(=C4CCCCC4)S3)CC2)c1 has an IC50 of 0.78 µg/mL (≈ 2.19 µM).
Cc1ccccc1Nc1nc(NCc2ccco2)c2ccccc2n1 was tested, and the IC50 was 2.64 µg/mL (≈ 7.99 µM).
Compound CN1CCN(c2ccc(NC(=S)NC(=O)c3ccc(-c4cccc(Cl)c4)o3)cc2)CC1 has an IC50 of 0.38 µg/mL (≈ 0.835 µM).
COc1ccc(CCNC(=S)NC23CC4CC(CC(C4)C2)C3)cc1 showed an IC50 of 7.85 µg/mL (≈ 22.8 µM).
With Oc1ccc(CSc2ccccc2)c2cccnc12 the IC50 was 0.6 µg/mL (≈ 2.24 µM).
COc1ccccc1-c1coc2cc(OCC(=O)OCc3ccccc3)ccc2c1=O showed an IC50 of 0.35 µg/mL (≈ 0.84 µM).
Work on Cc1c(Cl)ccc(OCCCN2CCCC(C)C2)c1C (stereo not drawn) yielded an IC50 of 3.16 µg/mL (≈ 10.7 µM).
With CCCOc1ccc(C(=O)NC(=S)Nc2ccc(C(=O)O)cc2)cc1 the IC50 was 0.12 µg/mL (≈ 0.335 µM).
With CCCCN1C(=O)C(=O)c2cc(Br)ccc21 the IC50 was 9.17 µg/mL (≈ 32.5 µM).
